Test results published in patent publication US20260297081A1, “COMPOUNDS AND METHODS OF TREATING CANCERS” (Cullgen Inc., priority 2023, published 2026).
Read-outs that look alike come from different tables or passages of the source. Blank lines part the entries; values can stand above or below the molecule they belong to.

How the values were obtained:
[1] = test system: T47D palbo-resistant cells; test: Cell viability in T47D palbociclib-resistant model (FIG. 4); assay type: cell-based; conditions: 10-point serial dilution, 6 days
Protocol: T47D cells were cultured long-term to resistance in the presence of 1 μM Palbociclib. Palbo resistance was determined by CellTiter-Lumi cell viability assay. T47D parental or palbo-resistant cells were treated with palbociclib, or heterobifunctional compounds CPD-10 or CPD-39 following a 10-point serial dilution for 6 days.
(§1) Calu-1, T47D, MCF7, HCC1428 and other cells were cultured at 37° C. with 5% CO2 in RPMI 1640 or DMEM medium supplemented with 10% fetal bovine serum. Cells were authenticated using the short tandem repeat (STR) assays. Mycoplasma test results were negative. For palbo-resistant cell model, T47D cells were cultured long-term to resistance in the presence of 1 μM Palbociclib. Cells were deemed resistant when growing in the presence of Palbo at the same rate as parental cells.
Cells were seeded at a density of 2,000-5,000 cells per well in 96-well assay plates and treated with test compounds following a 10-point serial dilution for 3-6 days. Cell viability was determined using the CellTiter-Lumi assay kit according to the manufacturer's instructions. The dose-response curves were determined and IC50 values were calculated using the GraphPad Prism software following a nonlinear regression (least squares fit) method. Data presented was mean±standard deviation (SD)unless otherwise indicated.

[2] = target: T1, CDK4 (Homo sapiens, UniProt P11802+Q16531); test: CDK4 percentage degradation in Calu-1 cells (Table 6); assay type: cell-based; design: Cells that express cyclin D1-3 and CDK4/6 proteins were treated with heterobifunctional compounds; endogenous in cells; host or cells: Calu-1; conditions: 16 hours; for inhibition at 0.04 µM: 40 nM; for inhibition at 0.2 µM: 200 nM
Summary of the method: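 Percentage degradation of Cyclin D1 and CDK4 derived from densitometry of ECL Western blots on lysates of Calu-1 cells. Treatment was 16 h with compound at either 40 nM or 200 nM.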

[3] = test system: Calu-1 cells; test: Anti-proliferation (viability) of NSCLC Calu-1 cells, 3 days (Table 7, FIG. 2B); assay type: cell-based; conditions: Homo sapiens, 72 h; Calu-1 cells, 3 days, 10-point serial dilution; read-out: GI IC50 in Calu-1
Summary of the method: (§2)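 Viability is read after treatment with compounds titrated over ten serial dilution points, with exposure lasting three days for the NSCLC line and six days for the breast cancer line.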

[4] = test system: T47D palbo-resistant cells; test: CellTiter-Lumi cell viability assay, T47D palbo-resistant cells, 6 days (FIG. 4); assay type: cell-based; conditions: Homo sapiens, 144 h
Protocol: (§3) Furthermore, we developed one ER^+ breast cancer T47D model with acquired resistance after long period of treatment with 1 μM palbociclib (over IC90). Cells were deemed resistant when growing in the presence of palbo at the same rate as parental cells. Palbo resistance was determined by CellTiter-Lumi cell viability assay (FIG. 4, IC50>10,000 nM).

[5] = Mouse pharmacokinetics (FIG. 5); assay type: in vivo, male Swiss Albino mice; conditions: plasma, po, mice, 1 mg/kg i.v. and 10 mg/kg p.o., over 12 hours
Protocol: A single dose of CPD-39 via 1 mg/kg intravenous (i.v.) injection or 10 mg/kg oral (p.o.) gavage was evaluated in mice. Plasma concentration of CPD-39 reported at each time points post dosing (5 min, 15 min, 30 min, 1 h, 2 h, 4 h, and 8 h via i.v.; 15 min, 30 min, 1 h, 2 h, 4 h, 6 h, 8 h, and 12 h via p.o.) represents the mean value derived from 3 experimental animals.
Standard PK studies were conducted using male Swiss Albino mice by Sai Life Sciences. A single dose of test compound via intravenous (i.v.) injection or oral (p.o.) gavage was evaluated in fed mice. Plasma concentration of test compound reported at each time points represents the mean value derived from 3 experimental animals. Error bars represent +SD.

[6] = test system: MCF7 cells; test: Anti-proliferation (viability) of MCF7 cells (Table 7, FIG. 2B); assay type: cell-based; conditions: Homo sapiens, MCF7, MCF7 cells, 3-6 days, 10-point serial dilution; read-out: GI IC50 in MCF-7
[7] = Pharmacokinetics in mice, single dose i.v. injection or oral gavage (FIG. 5); assay type: in vivo; conditions: mouse, plasma
Protocol: To investigate the pharmacokinetics of heterobifunctional compounds, exemplified by CPD-39, a single dose of CPD-39 via 1 mg/kg intravenous (i.v.) injection or 10 mg/kg was evaluated in mice. Plasma concentration reported at each time points post dosing represents the mean value derived from 3 experimental animals.

[8] = test system: T47D parental cells; test: CellTiter-Lumi cell viability assay, T47D parental cells, 6 days (FIG. 4); assay type: cell-based; conditions: Homo sapiens, 144 h
Protocol: as §3

[9] = test system: T47D cells; test: Anti-proliferation (viability) of ER+ breast cancer T47D cells, 6 days (Table 7, FIG. 2B); assay type: cell-based; conditions: Homo sapiens, 144 h; T47D cells, 6 days, 10-point serial dilution; read-out: GI IC50 in T47D
Summary of the method: as §2

[10] = test system: T47D cells; test: Flow cytometric analysis of Annexin V/7-AAD stained T47D cells (apoptosis), 6 days (FIG. 3A); assay type: cell-based
Protocol: (§4) T47D cells were treated with DMSO, palbociclib, heterobifunctional compound CPD-10 for 6 days at doses approximating IC50and IC90 concentrations as indicated (FIG. 3A). HCC1428 cells were treated with DMSO, palbociclib, heterobifunctional compound CPD-10, or its negative control compound CPD-143 for 6 days at doses approximating IC90 concentrations as indicated (FIG. 3B). Cells were harvested by trypsinization, staining was carried out using the Annexin V Apoptosis Detection Kit. The percentages of early apoptotic (Annexin V^+7-AAD^−, lower right quadrant), late apoptotic (Annexin V^+7-AAD^+, upper right quadrant) and necrotic cells (Annexin V^−7-AAD^+, upper left quadrant) are indicated on dot plots.

[11] = test system: HCC1428 cells; test: Annexin V apoptosis flow cytometry, HCC1428 (FIG. 3B); assay type: cell-based; conditions: HCC1428, dose approximating IC90, 6 days
Protocol: as §4, with “IC50 and” for “IC50and”, “Kit.” for “Kit. The percentages of early apoptotic (Annexin V^+7-AAD^−, lower right quadrant), late apoptotic (Annexin V^+7-AAD^+, upper right quadrant) and necrotic cells (Annexin V^−7-AAD^+, upper left quadrant) are indicated on dot plots.”
(§5) Assays were performed on the CytoFLEX Cytometer (Beckman Coulter), and data were analyzed using CytExpert software. For cell death and apoptosis analysis, cells were harvested by trypsinization, staining was carried out using the Annexin V Apoptosis Detection Kit (BD Biosciences). Briefly, cells were resuspended in 1× binding buffer and incubated with fluorochrome-conjugated Annexin V and 7-AAD for 15 min in darkness at room temperature.

[12] = test system: CCND1, CCND3, and CDK4 in Calu-1 cells; test: Immunoblot of CCND1, CCND3 and CDK4 protein levels in Calu-1 cells (FIG. 1A, 4 hours); assay type: cell-based; conditions: Calu-1 cells, CDK4/6 inhibitor
Protocol: (§6) Specific exemplary heterobifunctional compounds were characterized in Calu-1, MCF7, T47D and other cells. Cells that express cyclin D1-3 and CDK4/6 proteins were treated with heterobifunctional compounds disclosed herein at indicated concentrations. MCF7 cells were deprived of serum for 2 hours followed by the treatment with heterobifunctional compounds. Cells were collected, lysed and subject to immunoblotting using an antibody specific to CCND1, CCND2, CCND3, CDK4, or FoxM1, cyclin A2, or phosphorylated Rb (S807/811) proteins. Tubulin or GAPDH was used as the loading control. DMSO treatment was used as the negative control.

[13] = test system: T47D cells; test: Annexin V apoptosis flow cytometry, T47D (FIG. 3A); assay type: cell-based; conditions: doses approximating IC50 and IC90, 6 days
Protocol: as §4, with “IC50 and” for “IC50and”, “Kit.” for “Kit. The percentages of early apoptotic (Annexin V^+7-AAD^−, lower right quadrant), late apoptotic (Annexin V^+7-AAD^+, upper right quadrant) and necrotic cells (Annexin V^−7-AAD^+, upper left quadrant) are indicated on dot plots.”
as §5

[14] = target: T1, CDK4; test: Immunoblotting of CDK4 protein level in Calu-1 and MCF7 cells (FIG. 1A-1B); assay type: cell-based; design: Cells that express cyclin D1-3 and CDK4/6 proteins were treated with heterobifunctional compounds; endogenous in cells; host or cells: Calu-1; conditions: Calu-1 cells, 4 hours
Protocol: (§7) Calu-1 cells were treated with heterobifunctional compound CPD-10, or CDK4/6 inhibitor palbociclib at indicated concentrations for 4 hours (FIG. 1A). MCF7 cells were deprived of serum for 2 hours followed by treatment with CPD-10, or palbociclib at indicated concentrations for 24 hours (FIG. 1B).
(§8) Antibody and Reagent Anti-cyclin D1 (29785), anti-cyclin D2 (3741S), anti-cyclin D3 (2936S), anti-CDK4 (127905), anti-CDK6 (3136S), anti-phospho-Rb (8516S), anti-FoxM1 (54365), anti-cyclinA2(4656S), anti-vinculin antibody (187995) antibodies were purchased from Cell Signaling Technology. HRP-conjugated anti-α-tubulin antibody and anti-α-GAPDH antibody were purchased from GNI. Media, and other cell culture reagents were purchased from Thermo Fisher Scientific. CellTiter-Glo Luminescent Assay kit was purchased from Promega.
as §1
(§9) Cultured cells were washed with cold PBS once and lysed in cold RIPA buffer supplemented with protease inhibitors and phosphatase inhibitors (Beyotime Biotechnology). The solutions were then incubated at 4 ? for 30 min with gentle agitation to fully lysed cells. Cell lysates were centrifuged at 13,000 rpm for 10 min at 4 ? and pellets were discarded. Total protein concentrations in the lysates were determined following BCA assays (Beyotime Biotechnology). Cell lysates were mixed with Laemmli loading buffer and heated at 99° C. for 5 min. Proteins were resolved on SDS-PAGE and visualized using Western ECL Substrate kits on a ChemiDoc MP Imaging system (Bio-Rad). Protein bands were quantitated using the Image Lab software provided by Bio-Rad.

[15] = test system: CCND3; test: Immunoblotting of CCND3 protein level in Calu-1 and MCF7 cells (FIG. 1A-1B); assay type: cell-based; conditions: Calu-1 cells, 4 hours
Protocol: as §7, §8, §1, §9

[16] = test system: CCND1; test: Immunoblotting of CCND1 protein level in Calu-1 and MCF7 cells (FIG. 1A-1B); assay type: cell-based
Protocol: as §7, §8, §1, §9

[17] = test system: CCND1, CCND3, and CDK4 in MCF7 cells; test: Immunoblot of CCND1, CCND3 and CDK4 protein levels in MCF7 cells under serum starvation (FIG. 1B, 24 hours); assay type: cell-based; conditions: MCF7 cells, CDK4/6 inhibitor
Protocol: as §6

[18] = test system: HCC1428 cells; test: Flow cytometric analysis of Annexin V/7-AAD stained HCC1428 cells (apoptosis), 6 days (FIG. 3B); assay type: cell-based; conditions: HCC1428; 1 μM; 6 days
Protocol: as §4

T1 sequence (P11802 2-303 limits assumed): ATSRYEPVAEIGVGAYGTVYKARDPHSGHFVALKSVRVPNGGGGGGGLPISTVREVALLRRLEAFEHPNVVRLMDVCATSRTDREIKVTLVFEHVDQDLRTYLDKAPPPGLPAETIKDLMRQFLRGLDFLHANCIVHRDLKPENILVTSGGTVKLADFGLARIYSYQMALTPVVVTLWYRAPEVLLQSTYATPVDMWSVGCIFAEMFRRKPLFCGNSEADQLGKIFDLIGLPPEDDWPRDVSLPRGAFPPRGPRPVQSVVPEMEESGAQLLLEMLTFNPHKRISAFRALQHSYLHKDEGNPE
T1 sequence (P24385 whole entry partner): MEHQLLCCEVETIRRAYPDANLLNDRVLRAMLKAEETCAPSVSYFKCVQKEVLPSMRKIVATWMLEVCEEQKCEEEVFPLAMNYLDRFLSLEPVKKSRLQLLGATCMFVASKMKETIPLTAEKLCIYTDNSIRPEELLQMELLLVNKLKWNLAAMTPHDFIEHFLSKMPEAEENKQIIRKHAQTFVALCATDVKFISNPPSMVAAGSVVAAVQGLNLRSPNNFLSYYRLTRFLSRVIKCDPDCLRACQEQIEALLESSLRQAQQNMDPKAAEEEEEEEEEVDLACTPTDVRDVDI
T1 sequence (Q16531 2-1140 limits assumed): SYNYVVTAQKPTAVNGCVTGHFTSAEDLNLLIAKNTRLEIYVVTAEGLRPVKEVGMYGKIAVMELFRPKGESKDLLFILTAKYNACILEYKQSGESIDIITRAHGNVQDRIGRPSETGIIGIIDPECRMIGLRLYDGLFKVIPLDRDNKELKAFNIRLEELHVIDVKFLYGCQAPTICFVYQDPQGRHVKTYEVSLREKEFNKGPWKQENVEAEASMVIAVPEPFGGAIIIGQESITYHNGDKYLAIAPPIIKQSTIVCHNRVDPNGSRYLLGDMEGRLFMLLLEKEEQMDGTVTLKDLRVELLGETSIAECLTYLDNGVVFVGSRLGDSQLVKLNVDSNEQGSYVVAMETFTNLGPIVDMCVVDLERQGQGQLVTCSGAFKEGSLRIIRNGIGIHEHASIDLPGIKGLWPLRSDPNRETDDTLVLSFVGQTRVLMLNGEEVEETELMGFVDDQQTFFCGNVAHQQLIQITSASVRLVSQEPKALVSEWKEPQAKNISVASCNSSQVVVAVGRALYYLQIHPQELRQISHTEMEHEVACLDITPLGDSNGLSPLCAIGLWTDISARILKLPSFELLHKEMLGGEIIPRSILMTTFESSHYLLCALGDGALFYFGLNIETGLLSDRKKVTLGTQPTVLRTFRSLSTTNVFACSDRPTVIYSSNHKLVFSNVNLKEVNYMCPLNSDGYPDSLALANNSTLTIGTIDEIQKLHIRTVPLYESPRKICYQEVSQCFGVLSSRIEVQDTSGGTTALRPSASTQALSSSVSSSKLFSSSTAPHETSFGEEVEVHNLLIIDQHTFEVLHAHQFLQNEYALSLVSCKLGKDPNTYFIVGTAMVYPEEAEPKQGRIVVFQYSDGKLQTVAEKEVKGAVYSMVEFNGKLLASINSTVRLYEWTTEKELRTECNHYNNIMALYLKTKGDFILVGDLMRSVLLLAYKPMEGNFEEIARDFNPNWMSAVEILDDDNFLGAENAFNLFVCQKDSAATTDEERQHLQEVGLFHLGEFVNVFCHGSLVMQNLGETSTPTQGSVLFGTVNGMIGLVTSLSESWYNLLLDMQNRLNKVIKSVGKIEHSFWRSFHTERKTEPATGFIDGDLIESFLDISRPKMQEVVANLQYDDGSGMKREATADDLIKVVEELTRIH

inhibition at 0.04 µM [2]: 50 to 80%
inhibition at 0.2 µM [2]: 50 to 80%
IC50 [3]: ≤ 0.01 µM
IC50 [4]: 0.0825 µM
bioavailability at 12 h [5]: ~15%
IC50 [6]: > 0.1 µM
AUC(0-inf) ([7]; iv, mice, 1 mg/kg i.v., read-out: AUCinf, i.v.): 1030 ng·h/mL
clearance ([7]; iv, mice, 1 mg/kg i.v., read-out: CL, i.v.): 16.3 mL/min/kg
Vd ([7]; iv, mice, 1 mg/kg i.v., read-out: VSS, i.v.): 1.6 L/kg
AUC(0-inf) ([7]; po, fed mice, 10 mg/kg p.o., read-out: AUCinf, p.o.): 1580 ng·h/mL
bioavailability ([7]; fed mice, 10 mg/kg oral vs 1 mg/kg i.v.): > 15%
IC50 [9]: ≤ 0.05 µM
SMILES: CNc1ccc(C(=O)Nc2ccc(N(C)C)nn2)c(NC2CC3(CC(NC(=O)CN4CCN(c5ccc(Nc6ncc7c(C)c(C(C)=O)c(=O)n(C8CCCC8)c7n6)nc5)CC4)C3)C2)n1 (stereo not drawn) [CPD-39, 2-((6-(2-(4-(6-((6-Acetyl-8-cyclopentyl-5-methyl-7-oxo-7,8-dihydropyrido[2,3-d]pyrimidin-2-yl)amino)pyridin-3-yl)piperazin-1-yl)acetamido)spiro[3.3]heptan-2-yl)amino)-N-(6-(dimethylamino)pyridazin-3-yl)-6-(methylamino)nicotinamide]
cell viability in palbociclib-resistant model [1]: remained effective in T47D palbo-resistant model
IC50 [8]: 0.0326 µM

inhibition at 0.04 µM [2]: 50 to 80%
inhibition at 0.2 µM [2]: 50 to 80%
IC50 [3]: ≤ 0.01 µM
IC50 [6]: > 0.1 µM
IC50 [9]: 0.05 to 0.1 µM
SMILES: CNc1ccc(C(=O)Nc2ccc(N(C)C)nn2)c(NC2CCC(CCNC(=O)CN3CCN(c4ccc(Nc5ncc6c(C)c(C(C)=O)c(=O)n(C7CCCC7)c6n5)nc4)CC3)C2)n1 (stereo not drawn) [CPD-136, 2-((3-(2-(2-(4-(6-((6-Acetyl-8-cyclopentyl-5-methyl-7-oxo-7,8-dihydropyrido[2,3-d]pyrimidin-2-yl)amino)pyridin-3-yl)piperazin-1-yl)acetamido)ethyl)cyclopentyl)amino)-N-(6-(dimethylamino)pyridazin-3-yl)-6-(methylamino)nicotinamide]

inhibition at 0.04 µM [2]: 50 to 80%
inhibition at 0.2 µM [2]: > 80%
IC50 [3]: ≤ 0.01 µM
IC50 [6]: > 0.1 µM
IC50 [9]: 0.05 to 0.1 µM
SMILES: CNc1ccc(C(=O)Nc2cccc(C)n2)c(NC2CC3(C2)CN(C(=O)CCN2CCN(c4ccc(Nc5ncc6c(C)c(C(C)=O)c(=O)n(C7CCCC7)c6n5)nc4)CC2)C3)n1 [CPD-155, 2-((2-(3-(4-(6-((6-acetyl-8-cyclopentyl-5-methyl-7-oxo-7,8-dihydropyrido[2,3-d]pyrimidin-2-yl)amino)pyridin-3-yl)piperazin-1-yl)propanoyl)-2-azaspiro[3.3]heptan-6-yl)amino)-6-(methylamino)-N-(6-methylpyridin-2-yl)nicotinamide]

IC50 [4]: > 10 µM
SMILES: CC(=O)c1c(C)c2cnc(Nc3ccc(N4CCNCC4)cn3)nc2n(C2CCCC2)c1=O [Palbociclib, palbociclib, reference compound]
Annexin V+ population ([10]; 100 nM): 15.9%
Annexin V+ population ([10]; 1 μM): 26.1%
cell apoptosis [11]: much less effect on cell apoptosis
effect on CCND and CDK4 protein levels (result in words) [12]: no significant effect
cell apoptosis [13]: much less effect on cell apoptosis
CDK4 protein level [14]: did not significantly change the levels of these proteins in Calu-1 cells
CCND3 protein level [15]: did not significantly change the levels of these proteins in Calu-1 cells
CCND1 protein level ([16]; Calu-1 cells, 4 hours): did not significantly change the levels of these proteins in Calu-1 cells
CCND1 protein level ([16]; MCF7 cells, serum deprived 2 hours, treated 24 hours): accumulated CCND1 protein levels in MCF7 cells
effect on CCND1 protein levels (result in words) [17]: accumulation of CCND1 protein levels
Annexin V+ population [18]: 17.7%
